Test results taken from US20060148030A1, “Nuclear receptor err y 3” (FUJISAWA PHARMACEUTICAL CO., LTD, priority 2002, published 2006).

T1: ERRγ1 (Homo sapiens, UniProt P62508)
T1 sequence (P62508 1-435 isoform P62508-2): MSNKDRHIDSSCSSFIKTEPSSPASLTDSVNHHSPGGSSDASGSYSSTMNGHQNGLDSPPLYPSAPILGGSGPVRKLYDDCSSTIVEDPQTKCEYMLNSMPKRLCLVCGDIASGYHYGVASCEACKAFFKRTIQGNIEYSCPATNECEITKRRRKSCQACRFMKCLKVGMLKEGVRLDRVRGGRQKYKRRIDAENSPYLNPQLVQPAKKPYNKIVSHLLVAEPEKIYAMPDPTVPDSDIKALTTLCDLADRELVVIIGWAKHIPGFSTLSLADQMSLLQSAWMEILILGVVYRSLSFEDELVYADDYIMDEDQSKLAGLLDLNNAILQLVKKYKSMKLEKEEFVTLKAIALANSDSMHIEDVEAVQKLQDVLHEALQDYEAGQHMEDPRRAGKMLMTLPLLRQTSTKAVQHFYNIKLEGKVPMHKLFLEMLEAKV


Tests used:
ERRγ1 = target: T1, ERRγ1; conditions: stated as known property; cited from earlier work
ERRγ2 = test: Reporter gene assay, ERRγ3 coexisted with ERRγ2, ERE luciferase reporter in CV-1 cells; format: cell-based, human; conditions: FIG. 15
Sequence of ERRγ2 (P62508 whole entry): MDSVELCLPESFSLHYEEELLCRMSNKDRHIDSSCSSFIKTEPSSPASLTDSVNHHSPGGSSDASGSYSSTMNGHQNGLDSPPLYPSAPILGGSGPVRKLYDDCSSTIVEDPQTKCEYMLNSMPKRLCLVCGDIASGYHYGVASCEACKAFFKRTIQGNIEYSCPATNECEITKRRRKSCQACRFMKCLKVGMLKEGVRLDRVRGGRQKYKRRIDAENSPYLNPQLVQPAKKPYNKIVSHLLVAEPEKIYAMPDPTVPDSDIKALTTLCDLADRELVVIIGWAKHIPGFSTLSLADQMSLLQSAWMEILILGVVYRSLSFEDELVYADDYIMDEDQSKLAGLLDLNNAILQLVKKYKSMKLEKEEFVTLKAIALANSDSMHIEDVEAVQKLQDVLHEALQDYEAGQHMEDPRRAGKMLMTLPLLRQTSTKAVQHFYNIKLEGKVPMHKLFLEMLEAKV
Procedure: The reporter gene assay was performed using CV-1 cells (African green monkey kidney-derived cell line) as hosts. Host cells were transfected with luciferase reporter plasmids and expression plasmids for ERRγ3, ERRγ2, or both. They were then exposed to 4-hydroxytamoxifen at different concentrations (0, 10^−10 to −10^−5 M) for 24 hours, whereupon luciferase activity within the cells was measured.
Transfection was performed as follows: CV-1 cells were suspended at 2×10^5 cells/2.5 ml in DMEM medium supplemented with 10% fetal bovine serum, 2000 U/l of penicillin G, and 100 mg/l streptomycin. These cells were seeded to a 6-well plate at 2.5 ml/well, and cultured for 18 to 24 hours in a CO2 incubator at 37° C. in the presence of 5% CO2. 1 μg of each of the transcription factor expression plasmid, the luciferase reporter plasmid, and another luciferase reporter plasmid for normalizing the measured value (pRL-TK), were dissolved in Opti-MEM (Gibco BRL) to total of 150 μl. 7 μl of the cell transfection reagent LipofectAMINE 2000 (Gibco BRL) was diluted in 143 μl of Opti-MEM, and this was added to the mixture drop by drop while stirring. […]
Luciferase activity was measured using the Dual-Luciferase™ Reporter Assay System (Promega). […] The protocol for measurement was as follows: 50 μl of Luciferase Assay Reagent II was added to each well, stirred for 0.3 seconds and measured for one second.

Molecule | binding to ERRγ1 (ERRγ1) | 4-hydroxytamoxifen concentration at which the enhancing function of ERRγ3 on ERRγ2 was reduced (ERRγ2; CV-1 cells, 24 hours exposure) | enhancement of the transcriptional activation function of ERRγ2 (ERRγ2; ERRγ3 coexisted with ERRγ2, CV-1 cells, ERE luciferase reporter)
4-hydroxytamoxifen [reference compound] | capable of binding | ≥ 10^−6 M | 
ERRγ3: novel ERRγ isoform, nuclear receptor protein of 396 amino acids (SEQ ID NO: 2) lacking part of the DNA binding domain (protein, listed as Homo sapiens) MSNKDRHIDSSCSSFIKTEPSSPASLTDSVNHHSPGGSSDASGSYSSTMNGHQNGLDSPPLYPSAPILGGSGPVRKLYDDCSSTIVEDPQTKCEYMLNSMPKRLCLVCGDIASGYHYGVASCEACKAFFKRTIQGVRLDRVRGGRQKYKRRIDAENSPYLNPQLAQPAKKPYNKIVSHLLVAEPEKIYAMPDPTVPDSDIKALTTLCDLADRELVVIIGWAKHIPGFSTLSLADQMSLLQSAWMEILILGVVYRSLSFEDELVYADDYIMDEDQSKLAGLLDLNNAILQLVKKYKSMKLEKEEFVTLKAIALANSDSMHIEDVEAVQKLQDVLHEALQDYEAGQHMEDPRRAGKMLMTLPLLRQTSTKAVQHFYNIKLEGKVPMHKLFLEMLEAKV |  |  | 53-68%
